Experimental data taken from US20110178104A1, “Anti-Heparin Compounds” (POLYMEDIX INC., priority 2010, published 2011).
pEC50: −log10 of the molar value. Converted amounts (≈) assume the structure as drawn. “And” between values parts separate entries of the source, which are not always exact repeats. Equal values may be shown once.

How the values were obtained:
Unfractionated heparin = assay: aPTT clotting assay, UFH 0.4 U/mL in plasma (Example 10); type: biochemical; conditions: unfractionated heparin 0.4 U/mL in plasma; aPTT clotting
Experimental: aPTT clotting Assay: Unfractionated heparin was mixed with plasma at a final concentration of 0.4 U/mL (or concentration which increases aPTT time to between 120 and 300 seconds). […] The ACL Elite Hemostasis analyzer (Beckman Coulter™) was used to add aPTT reagent (HemosIL SynthASil) to supplemented plasma. Clotting was initiated by addition of CaCl2 and time to clot was recorded.

fondaparinux [1] = assay: FXa amidolytic assay (Example 10), fondaparinux; conditions: for pEC50: read-out: Fondap FXa EC50, fondaparinux 0.02 μg/mL, human antithrombin, bovine Factor Xa
Experimental: (§3) Two μl of test agent are added (range between 0.01 and 23 ug/ml) and incubated for 5 minutes at 23° C. Bovine Factor Xa was added to a final concentration of 0.636 nkat/mL and incubated for a further 10 minutes at 23° C.

[2] = Cytotoxicity colorimetric assay, HepG2; type: cell-based, human; set-up: Cytotoxicity HepG2, percent printed in parentheses after the concentration: concentration or dose not given beside the values; conditions: human, HepG2 cells, one hour in serum-free media
In short: (§1)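 HepG2 cells (3×10^4/well, MEM + 10% FBS) and NIH/3T3 cells (2×10^4/well, DMEM + 10% BCS) were exposed to compound for 1 h in serum-free medium. Viability read by tetrazolium-to-formazan bioreduction after return to serum medium; EC50 from a four-parameter logistic fit.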

tinzaparin = assay: FXa amidolytic assay (Example 10), tinzaparin; conditions: read-out: Tinzap FXa EC50; tinzaparin 0.1 ug/ml; human antithrombin, bovine Factor Xa
Experimental: as §3

[3] = Cytotoxicity colorimetric assay, NIH/3T3; type: cell-based, mouse; conditions: mouse, NIH/3T3 cells, one hour in serum-free media
In short: as §1

blood pressure = assay: Hemodynamic responses in the anesthetized rat; type: in vivo; conditions: anesthetized rat, 8 or 16 mg/kg 10 minute IV infusion after heparin 50 U/kg
Text: As a key safety issue for cationic compounds is reduction in blood pressure shortly after administration. To address this hemodynamic issue, a medicinal chemistry strategy with literature precedence of introducing carboxylic acid functionality was applied to the salicylamide series of compounds. […] Surgically prepared animals were purchased from Charles River Laboratories, Raleigh, N.C. Animals were anesthetized on the day of experiment with isoflurane (1.8-4%). Blood pressure and heart rate data were collected on a Grass Polygraph recorder. The test articles, vehicle or protamine dosing preparations were administered once to each rat by a 10 minute intravenous infusion three minutes following a single intravenous injection of heparin (50 U/kg). Each animal received a dose volume of 2.0 mL/kg. Blood pressure was recorded prior to treatment for approximately 1 minute and immediately following heparin, immediately following vehicle, test articles or protamine and at 5, 15, 30, and 60 minutes following dosing. The doses of test agent were either 8 mg/kg or 16 mg/kg. The differences in hemodynamic effect at 16 mg/kg were especially profound (FIG. 5).

enoxaparin [4] = assay: FXa amidolytic assay (Example 10), enoxaparin; conditions: read-out: Enox FXa EC50; enoxaparin 0.1 ug/ml; human antithrombin, bovine Factor Xa
Experimental: as §3

in vitro = type: cell-based, human; conditions: human, pH 7.4
In short: (§2)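 Pooled human red cells, washed and diluted from a 0.22% stock suspension in TBS pH 7.4, were shaken with two-fold dilutions (1000 to 0.48 µg/ml) for 1 h at 37 °C. Released hemoglobin in the supernatant was read at OD405. EC50 came from a four-parameter logistic fit, with melittin as positive control.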

[5] = test system: isolated human erythrocytes; assay: cells; type: cell-based; conditions: for EC50: Homo sapiens, Erythrocyte, 1 h, human RBC, 1 hour at 37° C., read-out: Hemolysis EC50
In short: as §2

UFH = assay: FXa amidolytic assay (Example 10), UFH; conditions: read-out: Heparin FXa uM EC50; UFH 0.03 units/mL; human antithrombin, bovine Factor Xa
Experimental: as §3

HepG2 cells = assay: Cytotoxicity colorimetric assay, HepG2; type: cell-based, human; set-up: Cytotoxicity HepG2, percent printed in parentheses after the concentration: concentration or dose not given beside the values
In short: as §1

fondaparinux [6] = assay: In vivo neutralization of fondaparinux in the rat
Experimental: Compounds were selected to test fondaparinux neutralization in vivo. Rats were pre-treated with fondaparinux administered by IV injection at 0.5 mg/kg. The rats were then treated with a single IV injection of saline, protamine or the PMX compound. Blood was collected via the orbital sinus from three rats per group at the following time points: pre-dose, 1, 3, 10, 30 and 60 min. Plasma samples were prepared for analysis of anti-factor Xa activity using an AMEX Destiny Plus Coagulation Analyzer.

NIH/3T3 cells = assay: Cytotoxicity colorimetric assay, NIH/3T3; type: cell-based, mouse
In short: as §1

[7] = Coagulation properties via ROTEM; conditions: at fully efficacious doses
enoxaparin [8] = assay: In vivo neutralization of enoxaparin in the rat; conditions: rat, enoxaparin 2 mg/kg IV
Experimental: Compounds were tested for their ability to neutralize enoxaparin coagulation inhibition in rats. Male Sprague-Dawley rats were used in this study (Charles River Laboratories). They were ten-weeks-old at the start of the study and their weights ranged from 319-362 g. Enoxaparin (2 mg/kg) was administered by IV injection to groups of six rats. After 3 min, saline, protamine or a test compound was administered by IV injection. Blood was collected before dosing with enoxaparin, and at 1, 3, 10, 30 and 60 min after dosing with the standard and test compounds. All treatments were dosed in a volume of 1 mL/kg. Blood was collected via the orbital sinus from three rats per group. At each time point, 1 mL of blood was collected from each animal into a single tube. The blood was analyzed using an AMEX Destiny Plus Coagulation Analyzer for activated partial thromboplastin time (APTT) and anti-Factor Xa (low-molecular weight).

Compound | pEC50 (Unfractionated heparin) | pEC50 (fondaparinux [1]) | EC50 at 1 h [2] [µg/mL] | pEC50 (tinzaparin) | EC50 at 1 h [3] [µg/mL] | hemodynamic response profile (blood pressure) | pEC50 (enoxaparin [4]) | hemolysis at 1 h (in vitro) [%] | EC50 [5] [µg/mL] | EC50 (UFH) [µM] | Potent LMWH-antagonists with superior anti-fondaparinux activity (summary) (fondaparinux [1]) | Cytotoxicity HepG2, percent printed in parentheses after the concentration (HepG2 cells; at the concentration given) [%] | Cytotoxicity HepG2 EC50 (HepG2 cells; one hour in serum-free media) [µg/mL] | reduction of Factor Xa (anti-factor Xa) levels after fondaparinux (fondaparinux [6]; fondaparinux 0.5 mg/kg IV, test agent 2 and 5 mg/kg IV) | in vivo efficacy versus fondaparinux (summary) (fondaparinux [6]; in vivo) | hemolysis and cytotoxicity (summary) [5] | Cytotoxicity 3T3, percent printed in parentheses after the concentration (NIH/3T3 cells; at the concentration given) [%] | Cytotoxicity 3T3 EC50 (NIH/3T3 cells; one hour in serum-free media) [µg/mL] | coagulation properties via ROTEM [7] | neutralization of enoxaparin (aPTT and factor Xa assays, words) (enoxaparin [8])
COc1ccc(NC(=O)[C@H](CCCCN)NC(=O)c2cc(NC(=O)[C@H](CCCCN)NC(=O)c3cc(NC(=O)[C@H](CCCCN)NC(=O)c4cc(NC(=O)[C@@H](N)CCCCN)ccc4OC)ccc3OC)ccc2OC)cc1C(=O)NCCC(=O)O [Compound 261] | 5.82 and 5.67 | 5.22 and 5.20 | > 1000 | 6.63 and 6.67 | > 1000 | did not show an improved hemodynamic effect profile | 6.46 and 6.53 |  |  |  |  |  |  |  |  |  |  |  |  | 
COc1ccc(NC(=O)[C@H](CCCNC(=N)N)NC(=O)c2cc(NC(=O)[C@H](CCCNC(=N)N)NC(=O)c3cc(NC(=O)[C@H](CCCNC(=N)N)NC(=O)c4cc(NC(=O)[C@@H](N)CCCNC(=N)N)ccc4OC)ccc3OC)ccc2OC)cc1C(=O)NCC(=O)O [Compound 284] | 5.81 | 6.41 |  | 6.86 |  |  | 6.84 | 50 | 1000 (≈ 771 µM) |  |  |  |  |  |  |  |  |  |  | 
COc1ccc(NC(=O)[C@H](CCCNC(=N)N)NC(=O)c2cc(NC(=O)[C@H](CCCNC(=N)N)NC(=O)c3cc(NC(=O)[C@H](CCCNC(=N)N)NC(=O)c4cc(NC(=O)[C@@H](N)CCCNC(=N)N)ccc4OC)ccc3OC)ccc2OCC(=O)O)cc1C(=O)N[C@@H](Cc1c[nH]c2ccccc12)C(N)=O [Compound 311] | 5.60 and 5.75 | 7.05 and 6.81 | 1000 (≈ 681 µM) | 6.97 and 6.82 | 1000 (≈ 681 µM) |  | 7.00 and 6.85 |  |  | 0.245 | superior anti-fondaparinux activity | 50 | >1000 | markedly reduced | in vivo efficacy versus fondaparinux | non-hemolytic and low cytotoxicity | 50 | >1000 | normal coagulation properties at fully efficacious doses | marginally more efficacious than the 3-Arg derivative
COc1ccc(NC(=O)[C@H](CCCNC(=N)N)NC(=O)c2cc(NC(=O)[C@H](CCCNC(=N)N)NC(=O)c3cc(NC(=O)[C@H](CCCNC(=N)N)NC(=O)c4cc(NC(C)=O)ccc4OC)ccc3OC)ccc2OCC(=O)O)cc1C(=O)N[C@@H](Cc1c[nH]c2ccccc12)C(N)=O [Compound 312] | < 5.00 | 6.92 |  | 6.77 |  |  | 6.82 | 25 | 1000 (≈ 738 µM) | 0.295 |  |  |  |  |  |  |  |  |  | 
COc1ccc(NC(=O)[C@H](CCCNC(=N)N)NC(=O)c2cc(NC(=O)[C@H](CCCNC(=N)N)NC(=O)c3cc(NC(=O)[C@H](CCCNC(=N)N)NC(=O)c4cc(NC(=O)[C@@H](N)CCCNC(=N)N)ccc4OC)ccc3OCC(=O)O)ccc2OC)cc1C(=O)N[C@@H](Cc1c[nH]c2ccccc12)C(N)=O [Compound 313] | 5.42 | 6.93 |  | 6.94 |  |  | 6.97 | 20 | ~100 (≈ 68.1 µM) | 0.196 |  |  |  |  |  |  |  |  |  | 
